O=C(N[C@H](Cc1c[nH]c2ccccc12)C(=O)O)OCC1c2ccccc2-c2ccccc21
Conditions | solubility (mole fraction)
in acetone, 283.15 K | 0.0377
in acetone, 288.15 K | 0.0387
in acetone, 293.15 K | 0.0407
in acetone, 298.15 K | 0.0432
in acetone, 303.15 K | 0.0456
in acetone, 308.15 K | 0.0483
in acetone, 313.15 K | 0.0533
in acetone, 318.15 K | 0.059
in acetone, 323.15 K | 0.0651
in acetonitrile, 283.15 K | 0.00128
in acetonitrile, 288.15 K | 0.0015
in acetonitrile, 293.15 K | 0.00164
in acetonitrile, 298.15 K | 0.00197
in acetonitrile, 303.15 K | 0.00229
in acetonitrile, 308.15 K | 0.00296
in acetonitrile, 313.15 K | 0.00382
in acetonitrile, 318.15 K | 0.00498
in acetonitrile, 323.15 K | 0.0067
in ethanol, 283.15 K | 0.00439
in ethanol, 288.15 K | 0.00448
in ethanol, 293.15 K | 0.00492
in ethanol, 298.15 K | 0.00538
in ethanol, 303.15 K | 0.00604
in ethanol, 308.15 K | 0.00688
in ethanol, 313.15 K | 0.00763
in ethanol, 318.15 K | 0.00893
in ethanol, 323.15 K | 0.0103
in ethyl acetate, 283.15 K | 0.00673
in ethyl acetate, 288.15 K | 0.00688
in ethyl acetate, 293.15 K | 0.00733
in ethyl acetate, 298.15 K | 0.0079
in ethyl acetate, 303.15 K | 0.00866
in ethyl acetate, 308.15 K | 0.00931
in ethyl acetate, 313.15 K | 0.0101
in ethyl acetate, 318.15 K | 0.0111
in ethyl acetate, 323.15 K | 0.0123
in isobutanol, 283.15 K | 0.00112
in isobutanol, 288.15 K | 0.00118
in isobutanol, 293.15 K | 0.00147
in isobutanol, 298.15 K | 0.0019
in isobutanol, 303.15 K | 0.00222
in isobutanol, 308.15 K | 0.00244
in isobutanol, 313.15 K | 0.00294
in isobutanol, 318.15 K | 0.00363
in isobutanol, 323.15 K | 0.00458
in isopropanol, 283.15 K | 0.00176
in isopropanol, 288.15 K | 0.00206
in isopropanol, 293.15 K | 0.00244
in isopropanol, 298.15 K | 0.00309
in isopropanol, 303.15 K | 0.00365
in isopropanol, 308.15 K | 0.00469
in isopropanol, 313.15 K | 0.00545
in isopropanol, 318.15 K | 0.00642
in isopropanol, 323.15 K | 0.00814
in methanol, 283.15 K | 0.00434
in methanol, 283.16 K | 0.0044
in methanol, 283.17 K | 0.00446
in methanol, 283.18 K | 0.00452
in methanol, 283.19 K | 0.00458
in methanol, 288.15 K | 0.00437
in methanol, 288.16 K | 0.00443
in methanol, 288.17 K | 0.00449
in methanol, 288.18 K | 0.00455
in methyl acetate, 283.15 K | 0.00812
in methyl acetate, 288.15 K | 0.00881
in methyl acetate, 293.15 K | 0.0097
in methyl acetate, 298.15 K | 0.0102
in methyl acetate, 303.15 K | 0.0112
in methyl acetate, 308.15 K | 0.0126
in methyl acetate, 313.15 K | 0.014
in methyl acetate, 318.15 K | 0.0159
in methyl acetate, 323.15 K | 0.0174
in n-butanol, 283.15 K | 0.00247
in n-butanol, 288.15 K | 0.00264
in n-butanol, 293.15 K | 0.00297
in n-butanol, 298.15 K | 0.0034
in n-butanol, 303.15 K | 0.00417
in n-butanol, 308.15 K | 0.0046
in n-butanol, 313.15 K | 0.00552
in n-butanol, 318.15 K | 0.00656
in n-butanol, 323.15 K | 0.00807
in n-butyl acetate, 283.15 K | 0.00381
in n-butyl acetate, 288.15 K | 0.00396
in n-butyl acetate, 293.15 K | 0.0042
in n-butyl acetate, 298.15 K | 0.00449
in n-butyl acetate, 303.15 K | 0.00481
in n-butyl acetate, 308.15 K | 0.00533
in n-butyl acetate, 313.15 K | 0.00581
in n-butyl acetate, 318.15 K | 0.00636
in n-butyl acetate, 323.15 K | 0.00743
in n-propanol, 283.15 K | 0.00255
in n-propanol, 288.15 K | 0.003
in n-propanol, 293.15 K | 0.00336
in n-propanol, 298.15 K | 0.00378
in n-propanol, 303.15 K | 0.00422
in n-propanol, 308.15 K | 0.0049
in n-propanol, 313.15 K | 0.00587
in n-propanol, 318.15 K | 0.00683
in n-propanol, 323.15 K | 0.00825
in n-propyl acetate, 283.15 K | 0.00437
in n-propyl acetate, 288.15 K | 0.00461
in n-propyl acetate, 293.15 K | 0.00506
in n-propyl acetate, 298.15 K | 0.0055
in n-propyl acetate, 303.15 K | 0.00595
in n-propyl acetate, 308.15 K | 0.00658
in n-propyl acetate, 313.15 K | 0.0071
in n-propyl acetate, 318.15 K | 0.00793
in n-propyl acetate, 323.15 K | 0.00903

Source: BigSolDB 2.1
